Data on 3 molecules can be found in PMC12005787, “Synthetic Lethality of SHP2 and XIAP Suppresses Proliferation and Metastasis in KRAS‐mutant Nonsmall Cell Lung Cancer” (Advanced Science, 2025).

Where two headings read alike, the source gives them in different places.

In assay [1] the test system is NCI‐H2122 cells. Briefly: Cell cycle assay. In kind it is cell-based, human. Particulars: embelin 15 µM or SHP099 10 µM for 72 h. The protocol:
NCI-H2122 cells treated with given disposal were washed with pre-cooled PBS, fixed
with ice pre-cooled 70% ethanol at 4℃ for 2 h. And then PI staining solution (containing
RNaseA) was incubated in dark at 37℃ for 30 min. Red fluorescence and light scattering
were detected by flow cytometry at 488 nm. Cell cycle results were analyzed and visualized
using ModFit LT and FlowJo software. […]
(1 picture or pasted object on this page, not shown here)

Assay [2] deals with MEK and ERK phosphorylation in NCI‐H2122 and A549 cells. Briefly: MEK and ERK phosphorylation (western blotting). It is filed as cell-based, human. Particulars: 24 h. A general note: Immunoblotting shows a protein as a band on a membrane.
Assay [3] addresses T1, TCPTP (Homo sapiens, UniProt P17706).
T1 construct: His; made in house; host or cells: E. coli
T1 sequence (P17706 1-415): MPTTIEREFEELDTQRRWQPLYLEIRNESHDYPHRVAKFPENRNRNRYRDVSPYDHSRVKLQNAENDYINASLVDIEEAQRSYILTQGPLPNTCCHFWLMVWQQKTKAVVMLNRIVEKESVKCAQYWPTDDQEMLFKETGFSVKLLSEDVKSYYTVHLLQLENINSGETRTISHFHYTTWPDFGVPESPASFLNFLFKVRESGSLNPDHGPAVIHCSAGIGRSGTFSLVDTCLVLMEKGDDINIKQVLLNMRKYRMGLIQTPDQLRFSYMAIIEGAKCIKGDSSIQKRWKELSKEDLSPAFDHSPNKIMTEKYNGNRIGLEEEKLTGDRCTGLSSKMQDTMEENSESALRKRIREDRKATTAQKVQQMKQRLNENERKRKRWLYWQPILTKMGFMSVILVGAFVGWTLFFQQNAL
Briefly: PTPs activity assay (DiFMUP). In kind it is biochemical.

The test system of assay [4] is HCC827 cells. Briefly: Cell viability assay (CCK-8). As to conditions: Homo sapiens; HCC827, RAS-wild type, 24 h. It is filed as cell-based. The protocol: (§1) supplies are listed in Supplementary Table S5. The relevant reagents for protein extraction from Escherichia coli are listed in Supplementary Table S6. Inhibitory effects of embelin on KRAS-mutant and wild-type cells are listed in Supplementary Table S7.
(§2) For the adherent cell viability assay, cells in the logarithmic growth phase were seeded in 96-well culture plates at a density of 5×103 well-1 and incubated overnight. Diluted compounds or DMSO were added, or specific treatments were incubated at 37 °C and 5% CO2 for 24 h or 48 h. Cell viability was determined using CCK-8 or CellLightTM Cell Viability Assay Kit, according to the manufacturer's protocol. The luminescence signals of the treated samples were normalized to those of the DMSO group. […]

For assay [5], the system named is SW620 cells. Put plainly: Cell viability assay (CCK-8). It is filed as cell-based. As to conditions: Homo sapiens, SW-620. The protocol: as §1, §2
In assay [6] the test system is cancer cell lines that contain different RAS mutations. Briefly: Average sensitivity of cancer cell line panel by RAS mutation status. In kind it is cell-based. The protocol: Inhibitory effects of embelin on KRAS-mutant and wild-type cells are listed in Supplementary Table S7.
as §2

Assay [7] concerns the target T2, ΔSHP2^K325A (Homo sapiens, UniProt Q06124, K325A).
T2 construct: His‐ΔSHP2, encompassing the peptide from amino acids 205–593 retaining PTP activity; His; made in house; host or cells: E. coli BL21
Put plainly: PTP activity assay of K325A mutant. It is filed as biochemical. The protocol:
Catalytic activity screening methods for PTPs using candidate compounds were performed as previously described.^[ [77] ^] In brief, soluble fusion PTP proteins, His‐ΔSHP2, encompassing the peptide from amino acids 205–593 retaining PTP activity, His‐ΔSHP2^K325A, His‐ΔSHP1, encompassing the peptide from amino acids 202–595 retaining PTP activity, His‐PTP1B, His‐HePTP, His‐VHR, and His‐TCPTP were cloned, expressed, and purified in E. coli. After determining protein concentration using bicinchoninic acid (BCA) assay kit, 1 µg fusion protein, 10 µM library compound were added in 100 µL reaction mixture (55 mM 4‐(2‐hydroxyethyl)‐1‐piperazineethanesulfonic acid [HEPES], 100 mM sodium chloride [NaCl], 0.5 mM ethylenediaminetetraacetic acid [EDTA], 1 mM dithiothreitol [DTT], 0.01% Triton X‐100, 0.002% bovine serum albumin [BSA], and 0.1% dimethyl sulfoxide [DMSO]) and incubated at 37 °C for 30 min in the dark, with Na3VO4 as positive control. The detection substrate DiFMUP (50 µM) was promptly added to each reaction and functioned at 37 °C for 30 min in the dark. The fluorescence intensity was then measured using Multimode Plate Reader (λa = 358 nm, λe = 455 nm, PerkinElmer, USA).
A single‐point mutation assay of the pET32a‐ΔSHP2 plasmid was performed using the QuickMutation Site‐Directed Mutagenesis Kit (Beyotime, Shanghai, China). […]

Assay [8] deals with T3, SHP2 in NCI‐H2122 cells (Homo sapiens, UniProt Q06124).
T3 construct: endogenous in cells; host or cells: NCI-H2122
Briefly: Intracellular SHP2 activity (IP and DiFMUP). In kind it is cell-based. The protocol:
To test intracellular SHP2 activity, the extract of NCI‐H2122 cells was precleared with protein A/G agarose beads and incubated with anti‐SHP2 antibody overnight at 4 °C, followed by further incubation with protein A/G agarose beads for 2 h at 4 °C. The Iimmunoprecipitates were suspended in sample buffer and detected in 96‐well black polystyrene plates using the fluorescent substrate DiFMUP under the same conditions as described above.

T3 sequence (Q06124 whole entry): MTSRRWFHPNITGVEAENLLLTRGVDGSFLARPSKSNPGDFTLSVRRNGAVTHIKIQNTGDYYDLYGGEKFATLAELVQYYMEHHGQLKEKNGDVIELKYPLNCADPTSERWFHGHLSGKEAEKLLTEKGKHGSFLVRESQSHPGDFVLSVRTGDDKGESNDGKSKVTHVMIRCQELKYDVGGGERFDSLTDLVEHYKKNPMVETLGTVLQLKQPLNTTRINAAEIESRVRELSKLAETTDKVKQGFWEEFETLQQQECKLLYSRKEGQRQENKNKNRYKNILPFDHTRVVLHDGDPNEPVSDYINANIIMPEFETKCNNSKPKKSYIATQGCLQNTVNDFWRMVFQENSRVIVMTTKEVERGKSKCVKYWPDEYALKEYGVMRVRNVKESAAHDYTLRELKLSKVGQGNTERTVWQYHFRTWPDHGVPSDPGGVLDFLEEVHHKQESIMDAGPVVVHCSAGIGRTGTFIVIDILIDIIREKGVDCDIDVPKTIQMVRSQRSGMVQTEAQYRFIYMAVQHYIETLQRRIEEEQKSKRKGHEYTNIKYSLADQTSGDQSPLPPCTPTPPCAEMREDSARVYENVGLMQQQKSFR
T2 sequence (Q06124 205-593 K325A): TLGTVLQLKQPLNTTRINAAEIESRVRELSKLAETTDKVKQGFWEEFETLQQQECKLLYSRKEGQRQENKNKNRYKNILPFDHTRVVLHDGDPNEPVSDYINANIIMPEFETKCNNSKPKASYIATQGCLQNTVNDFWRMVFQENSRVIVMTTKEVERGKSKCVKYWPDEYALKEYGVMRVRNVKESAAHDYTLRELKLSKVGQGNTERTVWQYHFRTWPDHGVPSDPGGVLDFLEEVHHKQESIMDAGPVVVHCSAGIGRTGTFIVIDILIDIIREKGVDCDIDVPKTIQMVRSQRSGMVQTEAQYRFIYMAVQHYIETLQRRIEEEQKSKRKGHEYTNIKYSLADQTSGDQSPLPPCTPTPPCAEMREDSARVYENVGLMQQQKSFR

In the case of `CC1(N)CCN(c2cnc(-c3cccc(Cl)c3Cl)c(N)n2)CC1` [SHP099], the “effect on cell cycle” value in assay [1] is listed as “had no effect”. For the same molecule, in assay [2], the “effect on MEK and ERK phosphorylation” value is listed as “did not affect MEK phosphorylation in A549 cells”.
In the case of `O=C1Nc2ccc(I)cc2/C1=C/c1cc(Br)c(O)c(Br)c1` [S2872, GW5074], in assay [3], the IC50 was found to be 322 µM.
`CCCCCCCCCCCC1=C(O)C(=O)C=C(O)C1=O` [Embelin]: the IC50 was > 200 µM in assay [3]; 4.95 ± 0.28 µM in assay [4]; 5.06 ± 0.45 µM in assay [5] (SW620, 48 h, read-out: IC50 at 48 h); 18.6 ± 0.4 µM in assay [5] (SW620, KRAS G12V, 24 h, read-out: IC50 at 24 h); 44 µM in assay [6] (HRAS mutants); 19.6 µM in assay [6] (NRAS mutant strain). For the same molecule, the IC50 in assay [6] (RAS wild‐type cell lines) amounted to 30.8 µM; in assay [6] (cell lines with KRAS mutations) it was 16.9 µM. Moreover, the “inhibitory effect on activity of ΔSHP2^K325A versus wild-type ΔSHP2” value in assay [7] is “notably diminished the inhibitory effect”. In addition, the “effect on intracellular SHP2 activity” value in assay [8] is “significantly inhibited”. For the same molecule, the “effect on cell cycle” value in assay [1] is “blocked the G2/M cycle”. Besides, in assay [2], the “effect on MEK and ERK phosphorylation” value is “inhibited MEK and ERK phosphorylation”.

As a reminder, the IC50 is the midpoint of a concentration-inhibition curve.
